Experimental data from patent US20150005242A1, “AROMATIC-CATIONIC PEPTIDES AND USES OF SAME” (Institut de Recherches Cliniques de Montreal, priority 2010, published 2015).

Tests used:
[1] = test system: animal models of ischemia-reperfusion injury, neurodegenerative diseases, and metabolic syndrome; assay: animal models of ischemia-reperfusion injury, neurodegenerative diseases, and metabolic syndrome; type: in vivo
[2] = neutralization of reactive species and inhibition of lipid peroxidation; type: biochemical
mitochondrial ROS = mitochondrial ROS and mitochondrial function in cellular and animal studies; type: cell-based
Text: These examples identify “druggable” chemical compounds that can reduce mitochondrial oxidative stress and protect mitochondrial function. As mitochondria are the major source of intracellular reactive oxygen species (ROS), the antioxidant must be delivered to mitochondria in order limit oxidative damage to mitochondrial DNA, proteins of the electron transport chain (ETC), and the mitochondrial lipid membranes. We discovered a family of synthetic aromatic-cationic tetrapeptides that selectively target and concentrate in the inner mitochondrial membrane (IMM). Some of these peptides contain redox-active amino acids that can undergo one-electron oxidation and behave as mitochondria-targeted antioxidants. […] Although radical scavenging is the most commonly used approach to reduce oxidative stress, there are other potential mechanisms that can be used, including facilitation of electron transfer to reduce electron leak and improved mitochondrial reduction potential.

cytochrome c (cyt c) = cytochrome c (cyt c) (Homo sapiens, UniProt P99999); assay: kinetics of cyt c reduction monitored by absorbance spectroscopy (A550); type: biochemical; details: for cyt c reduction by peptide alone: peptide alone at 100 μM, no reducing agent
Sequence of cytochrome c (cyt c) (P99999 whole entry, species assumed): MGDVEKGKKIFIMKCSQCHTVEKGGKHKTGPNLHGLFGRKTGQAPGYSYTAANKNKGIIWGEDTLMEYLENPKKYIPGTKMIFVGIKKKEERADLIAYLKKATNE
Method: FIG. 1 is a chart showing that the peptide D-Arg-Dmt-Lys-Phe-NH2 increases the rate of cytochrome c (cyt c) reduction. Reduced cyt c was measured by absorbance at 550 nm. […] The peptide alone at 100 μM had no effect.
We hypothesize that the distribution of aromatic cationic peptides among the protein complexes in the IMM allows it to serve as additional relay stations to facilitate ET. In support of this hypothesis, we have used the kinetics of cyt c reduction (monitored by absorbance spectroscopy) as a simple model system to determine if the peptide D-Arg-2′6′-Dmt-Lys-Phe-NH2 can facilitate ET.

[3] = test system: renal ischemia-reperfusion (IR) injury; assay: restoration of mitochondrial respiration and ATP synthesis following renal ischemia-reperfusion (IR) injury; type: in vivo; details: rats, 2.0 mg/kg sc 30 min before ischemia and at reperfusion; for state 3 respiration (oxygen consumption) in isolated renal mitochondria: 45 min bilateral renal artery occlusion, 20 min reperfusion, p<0.01; for ATP content (ATP synthesis) in rat kidney: 45 min ischemia, 1 h after IR injury, P<0.05
Method: FIG. 2 is a chart showing treatment with D-Arg-Dmt-Lys-Phe-NH2 increased state 3 respiration in isolated renal mitochondria after 20 min IR injury (p<0.01).
FIG. 3 is a chart showing that treatment with D-Arg-Dmt-Lys-Phe-NH2 increased ATP content in rat kidney at 1 h after IR injury (P<0.05).
Preliminary studies further support our hypothesis that D-Arg-2′6′-Dmt-Lys-Phe-NH2 can facilitate ET and improve ATP synthesis in vivo. We have examined the effect of this peptide on restoration of mitochondrial respiration and ATP synthesis following ischemia-reperfusion (IR) injury in rats. Rats were subjected to bilateral occlusion of renal artery for 45 min followed by 20 min or 1 h reperfusion. Rats received saline or peptide (2.0 mg/kg sc) 30 min before ischemia and again at the time of reperfusion (n=4-5 in each group).

[4] = listed as D-Arg-2′6′-Dmt-Lys-Phe-NH2, 2 mg/kg

Substance	efficacy in animal models [1]	oral bioavailability	lipid peroxidation [2]	neutralization of H2O2 [2]	neutralization of hydroxyl radical [2]	neutralization of peroxynitrite [2]	mitochondrial ROS (mitochondrial ROS; cellular and animal studies)	mitochondrial function (mitochondrial ROS; cellular and animal studies)	protection against mitochondrial oxidative stress (mitochondrial ROS; compared with mitochondrial catalase overexpression)	rate of NAC-induced cyt c reduction (cytochrome c (cyt c); 40 μM NAC as reducing agent, absorbance at 550 nm)	cyt c reduction by peptide alone (cytochrome c (cyt c))	cyt c reduction by peptide alone (cytochrome c (cyt c); listed as D-Arg-2′6′-Dmt-Lys-Phe-NH2)	state 3 respiration (oxygen consumption) in isolated renal mitochondria ([3]; 2 mg/kg)	state 3 respiration (oxygen consumption) in isolated renal mitochondria [3, 4]	ATP content (ATP synthesis) in rat kidney ([3]; 2 mg/kg)	ATP content (ATP synthesis) in rat kidney [3, 4]
D-Arg-2′6′-Dmt-Tyr-Lys-Phe-NH2	remarkable efficacy	limited by degradation in intestinal fluids	inhibit	can neutralize	can neutralize	can neutralize	reduces	protect	comparable to that observed with mitochondrial catalase overexpression							
D-Arg-2′6′-Dmt-Lys-Phe-NH2 [D-Arg-Dmt-Lys-Phe-NH2]										dose-dependently increased	had no effect	did not reduce cyt c	increased	improved	increased	improved
